Measurements reported in ChEMBL document CHEMBL1240439, “Synthesis and docking studies of novel benzopyran-2-ones with anticancer activity” (2010).
Calls of active or inactive are those of the source.

What was measured:
Type in all cases: functional
[1] = tested on: NCI-H23; assay: Cytotoxicity against human NCI-H23 cells assessed as cell growth at 10 uM after 48 hrs by sulforhodamine B assay
[2] = tested on: NCI-H460; assay: Cytotoxicity against human NCI-H460 cells assessed as cell growth at 10 uM after 48 hrs by sulforhodamine B assay
[3] = tested on: SK-MEL-28; assay: Cytotoxicity against human SK-MEL-28 cells assessed as cell growth at 10 uM after 48 hrs by sulforhodamine B assay
[4] = tested on: RXF 393; assay: Cytotoxicity against human RXF393 cells assessed as cell growth at 10 uM after 48 hrs by sulforhodamine B assay
[5] = tested on: PC-3; assay: Cytotoxicity against human PC3 cells assessed as cell growth at 10 uM after 48 hrs by sulforhodamine B assay
[6] = tested on: SK-OV-3; assay: Cytotoxicity against human SKOV3 cells assessed as cell growth at 10 uM after 48 hrs by sulforhodamine B assay
[7] = tested on: MCF7; assay: Cytotoxicity against human MCF7 cells assessed as cell growth at 10 uM after 48 hrs by sulforhodamine B assay
[8] = tested on: HOP-62; assay: Cytotoxicity against human HOP62 cells assessed as cell growth at 10 uM after 48 hrs by sulforhodamine B assay
[9] = tested on: SNB-75; assay: Cytotoxicity against human SNB75 cells assessed as cell growth at 10 uM after 48 hrs by sulforhodamine B assay
[10] = tested on: SK-MEL-5; assay: Cytotoxicity against human SK-MEL-5 cells assessed as cell growth at 10 uM after 48 hrs by sulforhodamine B assay
[11] = tested on: NCI-H322M; assay: Cytotoxicity against human NCI-H322M cells assessed as cell growth at 10 uM after 48 hrs by sulforhodamine B assay
[12] = tested on: ACHN; assay: Cytotoxicity against human ACHN cells assessed as cell growth at 10 uM after 48 hrs by sulforhodamine B assay
[13] = tested on: NCI-H522; assay: Cytotoxicity against human NCI-H522 cells assessed as cell growth at 10 uM after 48 hrs by sulforhodamine B assay
[14] = tested on: A549; assay: Cytotoxicity against human A549 cells assessed as cell growth at 10 uM after 48 hrs by sulforhodamine B assay
[15] = tested on: COLO 205; assay: Cytotoxicity against human COLO205 cells assessed as cell growth at 10 uM after 48 hrs by sulforhodamine B assay
[16] = tested on: Hs-578T; assay: Cytotoxicity against human Hs 578T cells assessed as cell growth at 10 uM after 48 hrs by sulforhodamine B assay
[17] = tested on: NCI-H226; assay: Cytotoxicity against human NCI-H226 cells assessed as cell growth at 10 uM after 48 hrs by sulforhodamine B assay
[18] = tested on: OVCAR-3; assay: Cytotoxicity against human OVCAR-3 cells assessed as cell growth at 10 uM after 48 hrs by sulforhodamine B assay
[19] = tested on: DU-145; assay: Cytotoxicity against human DU145 cells assessed as cell growth at 10 uM after 48 hrs by sulforhodamine B assay
[20] = tested on: SF-268; assay: Cytotoxicity against human SF268 cells assessed as cell growth at 10 uM after 48 hrs by sulforhodamine B assay
[21] = tested on: K562; assay: Cytotoxicity against human K562 cells assessed as cell growth at 10 uM after 48 hrs by sulforhodamine B assay
[22] = tested on: LOX IMVI; assay: Cytotoxicity against human LOXIMVI cells assessed as cell growth at 10 uM after 48 hrs by sulforhodamine B assay
[23] = tested on: OVCAR-5; assay: Cytotoxicity against human OVCAR5 cells assessed as cell growth at 10 uM after 48 hrs by sulforhodamine B assay
[24] = tested on: SF-295; assay: Cytotoxicity against human SF295 cells assessed as cell growth at 10 uM after 48 hrs by sulforhodamine B assay
[25] = tested on: SR; assay: Cytotoxicity against human SR cells assessed as cell growth at 10 uM after 48 hrs by sulforhodamine B assay
[26] = tested on: OVCAR-4; assay: Cytotoxicity against human OVCAR4 cells assessed as cell growth at 10 uM after 48 hrs by sulforhodamine B assay
[27] = tested on: OVCAR-8; assay: Cytotoxicity against human OVCAR8 cells assessed as cell growth at 10 uM after 48 hrs by sulforhodamine B assay
[28] = tested on: KM12; assay: Cytotoxicity against human KM12 cells assessed as cell growth at 10 uM after 48 hrs by sulforhodamine B assay
[29] = tested on: IGROV-1; assay: Cytotoxicity against human IGROV1 cells assessed as cell growth at 10 uM after 48 hrs by sulforhodamine B assay
[30] = tested on: HCT-15; assay: Cytotoxicity against human HCT15 cells assessed as cell growth at 10 uM after 48 hrs by sulforhodamine B assay
[31] = tested on: HT-29; assay: Cytotoxicity against human HT-29 cells assessed as cell growth at 10 uM after 48 hrs by sulforhodamine B assay
[32] = tested on: U-251; assay: Cytotoxicity against human U251 cells assessed as cell growth at 10 uM after 48 hrs by sulforhodamine B assay
[33] = tested on: HL-60(TB); assay: Cytotoxicity against human HL-60(TB) cells assessed as cell growth at 10 uM after 48 hrs by sulforhodamine B assay
[34] = tested on: BT-549; assay: Cytotoxicity against human BT549 cells assessed as cell growth at 10 uM after 48 hrs by sulforhodamine B assay
[35] = tested on: A498; assay: Cytotoxicity against human A498 cells assessed as cell growth at 10 uM after 48 hrs by sulforhodamine B assay
[36] = tested on: UO-31; assay: Cytotoxicity against human UO31 cells assessed as cell growth at 10 uM after 48 hrs by sulforhodamine B assay
[37] = tested on: HCT-116; assay: Cytotoxicity against human HCT116 cells assessed as cell growth at 10 uM after 48 hrs by sulforhodamine B assay
[38] = tested on: SF-539; assay: Cytotoxicity against human SF539 cells assessed as cell growth at 10 uM after 48 hrs by sulforhodamine B assay
[39] = tested on: TK-10; assay: Cytotoxicity against human TK10 cells assessed as cell growth at 10 uM after 48 hrs by sulforhodamine B assay
[40] = tested on: MDA-MB-435; assay: Cytotoxicity against human MDA-MB-435 cells assessed as cell growth at 10 uM after 48 hrs by sulforhodamine B assay
[41] = tested on: SW-620; assay: Cytotoxicity against human SW620 cells assessed as cell growth at 10 uM after 48 hrs by sulforhodamine B assay
[42] = tested on: UACC-62; assay: Cytotoxicity against human UACC62 cells assessed as cell growth at 10 uM after 48 hrs by sulforhodamine B assay
[43] = tested on: UACC-257; assay: Cytotoxicity against human UACC257 cells assessed as cell growth at 10 uM after 48 hrs by sulforhodamine B assay
[44] = tested on: M14; assay: Cytotoxicity against human M14 cells assessed as cell growth at 10 uM after 48 hrs by sulforhodamine B assay
[45] = tested on: MOLT-4; assay: Cytotoxicity against human MOLT4 cells assessed as cell growth at 10 uM after 48 hrs by sulforhodamine B assay
[46] = tested on: SN12C; assay: Cytotoxicity against human SN12C cells assessed as cell growth at 10 uM after 48 hrs by sulforhodamine B assay
[47] = tested on: CCRF-CEM; assay: Cytotoxicity against human CCRF-CEM cells assessed as cell growth at 10 uM after 48 hrs by sulforhodamine B assay
[48] = tested on: SK-MEL-2; assay: Cytotoxicity against human SK-MEL-2 cells assessed as cell growth at 10 uM after 48 hrs by sulforhodamine B assay
[49] = tested on: RPMI-8226; assay: Cytotoxicity against human RPMI8226 cells assessed as cell growth at 10 uM after 48 hrs by sulforhodamine B assay
[50] = tested on: MDA-MB-468; assay: Cytotoxicity against human MDA-MB-468 cells assessed as cell growth at 10 uM after 48 hrs by sulforhodamine B assay
[51] = tested on: SNB-19; assay: Cytotoxicity against human SNB19 cells assessed as cell growth at 10 uM after 48 hrs by sulforhodamine B assay
[52] = tested on: EKVX; assay: Cytotoxicity against human EKVX cells assessed as cell growth at 10 uM after 48 hrs by sulforhodamine B assay
[53] = tested on: Malme-3M; assay: Cytotoxicity against human MALME-3M cells assessed as cell growth at 10 uM after 48 hrs by sulforhodamine B assay
[54] = tested on: T47D; assay: Cytotoxicity against human T47D cells assessed as cell growth at 10 uM after 48 hrs by sulforhodamine B assay
[55] = tested on: HOP-92; assay: Cytotoxicity against human HOP92 cells assessed as cell growth at 10 uM after 48 hrs by sulforhodamine B assay
[56] = tested on: 786-0; assay: Cytotoxicity against human 786-0 cells assessed as cell growth at 10 uM after 48 hrs by sulforhodamine B assay
[57] = tested on: MDA-MB-231; assay: Cytotoxicity against human MDA-MB-231 cells assessed as cell growth at 10 uM after 48 hrs by sulforhodamine B assay
[58] = tested on: HCC 2998; assay: Cytotoxicity against human HCC2998 cells assessed as cell growth at 10 uM after 48 hrs by sulforhodamine B assay

Measured: Activity

CSc1nnc(COc2ccc3c(-c4ccccc4)cc(=O)oc3c2C)o1
inactive: [1] | [2] | [3] | [4] | [5] | [6] | [7] | [8] | [9] | [10] | [11] | [12] | [13] | [14] | [15] | [16] | [17] | [18] | [19] | [20] | [21] | [22] | [23] | [24] | [25] | [26] | [27] | [28] | [29] | [30] | [31] | [32] | [33] | [34] | [35] | [36] | [37] | [38] | [39] | [40] | [41] | [42] | [43] | [44] | [45] | [46] | [47] | [48] | [49] | [50] | [51] | [52] | [53] | [54] | [55] | [56] | [57] | [58]

CCCc1cc(=O)oc2cc(OCC(=O)n3nc(C)cc3C)ccc12
inactive: [1] | [2] | [3] | [4] | [5] | [6] | [7] | [8] | [9] | [10] | [11] | [12] | [13] | [14] | [15] | [16] | [17] | [18] | [19] | [20] | [21] | [22] | [23] | [24] | [25] | [26] | [27] | [28] | [29] | [30] | [31] | [32] | [33] | [34] | [35] | [36] | [37] | [38] | [39] | [40] | [41] | [42] | [43] | [44] | [45] | [46] | [47] | [48] | [49] | [50] | [51] | [52] | [53] | [54] | [55] | [56] | [57] | [58]
